Measured values from patent publication US20250144067A1, “PERSONALIZED STARVATION THERAPY FOR CANCER” (Faeth Therapeutics, Inc., priority 2021, published 2025).
Structures can show the parent of a compound that is named as a salt. Where two headings read alike, the source gives them in different places.

Tests used:
[1] = tested on: NCI-H292 lung cancer cells; experiment: FDA drug screening, complete media vs cholesterol-free media without statin (TABLE 1); format: cell-based, human
[2] = tested on: NCI-H292 lung cancer cells; experiment: FDA drug screening, complete media vs cholesterol-free media with simvastatin (TABLE 2); format: cell-based, human
[3] = NCI-H292 cells, cholesterol-free media without statin
[4] = complete vs cholesterol-free media, […]
[5] = complete media minus cholesterol-free media + simvastatin, […]
[6] = Complete minus Cholesterol-free, greater than 0 enhanced anti-cancer activity, about 0 neutral, below 0 antagonist
[7] = NCI-H292 cells, FDA drug library screen, cholesterol-free media without statin
[8] = NCI-H292 cells, FDA drug library screen, complete media
[9] = NCI-H292 cells, FDA library drug in cholesterol-free media with simvastatin 0.04 μM
[10] = complete media vs cholesterol-free media + simvastatin (0.04 μM), >0 enhanced anti-cancer activity, about 0 neutral, <0 antagonist
[11] = Complete minus Cholesterol-free, >0 enhanced anti-cancer activity, about 0 neutral, <0 antagonist
[12] = NCI-H292 cells, drug in cholesterol-free media with simvastatin 0.04 μM
[13] = NCI-H292 cells, drug in complete media
[14] = NCI-H292 cells, cholesterol-free media with simvastatin 0.04 μM, FDA drug library screen (TABLE 2)
[15] = NCI-H292 cells, complete media, FDA drug library screen (TABLE 2)
[16] = complete media minus cholesterol-free media + simvastatin (0.04 μM), […]
[17] = NCI-H292 cells, cholesterol-free media without statin, FDA drug library screen
[18] = NCI-H292 cells, complete media, FDA drug library screen
[19] = NCI-H292 cells, cholesterol-free media with simvastatin 0.04 μM, cell growth value in FDA drug screen
[20] = NCI-H292 cells, complete media, cell growth value in FDA drug screen
[21] = complete media minus cholesterol-free media + simvastatin, >0 enhanced anti-cancer activity, about 0 neutral, <0 antagonist
[22] = NCI-H292 cells, FDA drug library screen, cholesterol-free media with simvastatin 0.04 μM
[23] = complete media vs cholesterol-free media + simvastatin (0.04 μM), […]
[24] = Complete minus Cholesterol-free, […]
[25] = complete vs cholesterol-free media, >0 enhanced anti-cancer activity, about 0 neutral, <0 antagonist
[26] = NCI-H292 cells, FDA library drug in complete media

Molecule: (−)-Sparteine (sulfate pentahydrate)
- Cholesterol-free [1, 3]: 1.28
- Complete ([1]; NCI-H292 cells, complete media): 0.8579
- Difference [1, 4]: −0.42
- Cholesterol-free media + simvastatin (0.04 μM) ([2]; NCI-H292 cells, cholesterol-free media with simvastatin 0.04 μM, […]): 0.83
- Complete Media ([2]; NCI-H292 cells, complete media, […]): 0.9345
- Difference [2, 5]: 0.10

Molecule: Deferoxamine (mesylate)
- Difference [1, 6]: −0.12
- Cholesterol-free [1, 7]: 0.9976
- Complete [1, 8]: 0.8739
- Cholesterol-free media + simvastatin (0.04 μM) [2, 9]: 1.454
- Difference [2, 10]: −0.43

Molecule: O=c1[nH]ccc2c(S(=O)(=O)N3CCCNCC3)cccc12 [Hydroxyfasudil (hydrochloride)]
- Cholesterol-free [1]: 1.045
- Complete [1]: 0.7884
- Difference [1]: −0.26
- Cholesterol-free media + simvastatin (0.04 μM) [2]: 0.8461
- Complete Media [2]: 0.9788
- Difference [2]: 0.13

Molecule: CCCC(CCC)C(=O)O [Valproic acid (sodium salt)]
- Difference [1, 11]: −0.26
- Cholesterol-free [1, 3]: 0.9818
- Complete ([1]; NCI-H292 cells, complete media): 0.7267
- Cholesterol-free media + simvastatin (0.04 μM) [2, 12]: 0.961
- Complete Media [2, 13]: 0.7238
- Difference [2, 10]: −0.24

Molecule: CC(C)OC(=O)[C@H](C)N[P@](=O)(OC[C@H]1O[C@@H](n2ccc(=O)[nH]c2=O)[C@](C)(F)[C@@H]1O)Oc1ccccc1 [Sofosbuvir]
- Cholesterol-free [1, 3]: 1.138
- Complete ([1]; NCI-H292 cells, complete media): 0.6875
- Difference [1, 4]: −0.45
- Cholesterol-free media + simvastatin (0.04 μM) [2, 14]: 0.9955
- Complete Media [2, 15]: 0.9628
- Difference [2, 16]: −0.03

Molecule: O=C1c2c(O)ccc(O)c2C(=O)c2c(NCCNCCO)ccc(NCCNCCO)c21 [Mitoxantrone]
- Difference [1, 11]: −0.04
- Cholesterol-free [1, 17]: 0.007289
- Complete [1, 18]: −0.03159
- Cholesterol-free media + simvastatin (0.04 μM) [2, 14]: 0.04539
- Complete Media [2, 15]: −0.01641
- Difference ([2]; complete media minus cholesterol-free media + simvastatin (0.04 μM), >0 enhanced anti-cancer activity, about 0 neutral, <0 antagonist): −0.06

Molecule: CN1CCN(c2ccc(C(=O)Nc3n[nH]c4ccc(Cc5cc(F)cc(F)c5)cc34)c(NC3CCOCC3)c2)CC1 [Entrectinib]
- Difference [1, 11]: −0.05
- Cholesterol-free [1, 17]: 0.4371
- Complete [1, 18]: 0.3827
- Cholesterol-free media + simvastatin (0.04 μM) [2, 19]: 0.2455
- Complete Media [2, 20]: 0.2696
- Difference [2, 21]: 0.02

Molecule: Pimavanserin tartrate
- Cholesterol-free [1, 3]: 1.261
- Complete ([1]; NCI-H292 cells, complete media): 0.9005
- Difference [1, 4]: −0.36
- Cholesterol-free media + simvastatin (0.04 μM) [2, 22]: 1.092
- Complete Media [2, 8]: 0.9419
- Difference [2, 23]: −0.15

Molecule: COC(=O)/C=C/C(=O)OCCN1C(=O)CCC1=O [Diroximel fumarate]
- Difference [1, 11]: −0.30
- Cholesterol-free [1, 3]: 1.046
- Complete ([1]; NCI-H292 cells, complete media): 0.7458
- Cholesterol-free media + simvastatin (0.04 μM) [2, 22]: 0.9299
- Complete Media [2, 8]: 1.101
- Difference [2, 21]: 0.17

Molecule: CN1[C@@H]2CC[C@H]1C[C@@H](OC(=O)[C@H](CO)c1ccccc1)C2 [L-Hyoscyamine]
- Difference [1, 24]: −0.26
- Cholesterol-free [1, 3]: 1.23
- Complete ([1]; NCI-H292 cells, complete media): 0.9714
- Cholesterol-free media + simvastatin (0.04 μM) [2, 12]: 1.192
- Complete Media [2, 13]: 1.027
- Difference [2, 23]: −0.16

Molecule: Cn1c(=O)c2[nH]c(Br)nc2n(C)c1=O [Pamabrom]
- Difference [1, 6]: −0.16
- Cholesterol-free [1, 7]: 0.9285
- Complete [1, 8]: 0.7717
- Cholesterol-free media + simvastatin (0.04 μM) [2, 19]: 0.9207
- Complete Media [2, 20]: 0.9433
- Difference [2, 21]: 0.02

Molecule: Cc1cc(Nc2ncc(Cl)c(Nc3ccccc3S(=O)(=O)C(C)C)n2)c(OC(C)C)cc1C1CCNCC1 [Ceritinib dihydrochloride]
- Difference [1, 11]: −0.02
- Cholesterol-free [1, 17]: 0.3644
- Complete [1, 18]: 0.3489
- Cholesterol-free media + simvastatin (0.04 μM) [2, 22]: 0.1666
- Complete Media [2, 8]: 0.03677
- Difference [2, 10]: −0.13

Molecule: Colistin (sulfate)
- Difference [1, 4]: 0.08
- Cholesterol-free media + simvastatin (0.04 μM) [2, 12]: 1.189
- Complete Media [2, 13]: 0.9801
- Difference [2, 23]: −0.21

Molecule: CN1CCc2nc(C(=O)N[C@@H]3C[C@@H](C(=O)N(C)C)CC[C@@H]3NC(=O)C(=O)Nc3ccc(Cl)cn3)sc2C1 [Edoxaban]
- Cholesterol-free [1, 17]: 1.603
- Complete [1, 18]: 1.759
- Difference [1, 25]: 0.16
- Cholesterol-free media + simvastatin (0.04 μM) [2, 12]: 1.032
- Complete Media [2, 13]: 0.8097
- Difference [2, 10]: −0.22

Molecule: CC1(C)O[C@@H]2C[C@H]3[C@@H]4C[C@H](F)C5=CC(=O)C=C[C@]5(C)[C@@]4(F)[C@@H](O)C[C@]3(C)[C@]2(C(=O)CO)O1 [Fluocinolone (Acetonide)]
- Difference [1, 11]: 0.01
- Cholesterol-free [1, 17]: 0.5523
- Complete [1, 18]: 0.5617
- Cholesterol-free media + simvastatin (0.04 μM) [2, 12]: 0.6444
- Complete Media [2, 13]: 0.4689
- Difference [2, 10]: −0.18

Molecule: c1cc(CN2CCCNCCNCCCNCC2)ccc1CN1CCCNCCNCCCNCC1 [Plerixafor (octahydrochloride)]
- Difference [1, 6]: −0.08
- Cholesterol-free [1, 7]: 1.221
- Complete [1, 8]: 1.137
- Cholesterol-free media + simvastatin (0.04 μM) [2, 9]: 1.159
- Complete Media [2, 26]: 0.812
- Difference [2, 10]: −0.35

Molecule: C[C@H](Cn1cnc2c(N)ncnc21)OCP(=O)(O)O.O [Tenofovir (hydrate)]
- Cholesterol-free [1, 17]: 0.8777
- Complete [1, 18]: 1.281
- Difference [1, 25]: 0.40
- Cholesterol-free media + simvastatin (0.04 μM) [2, 22]: 1.824
- Complete Media [2, 8]: 2.099
- Difference [2, 21]: 0.27

Molecule: CN(C)CC/C=C1/c2ccccc2Sc2ccc(Cl)cc21 [Chlorprothixene (hydrochloride)]
- Cholesterol-free [1, 3]: 1.492
- Complete ([1]; NCI-H292 cells, complete media): 1.027
- Difference ([1]; complete vs cholesterol-free media, greater than 0 enhanced anti-cancer activity, about 0 neutral, below 0 antagonists): −0.46
- Cholesterol-free media + simvastatin (0.04 μM) [2, 22]: 0.8374
- Complete Media [2, 8]: 1.056
- Difference [2, 21]: 0.22

Molecule: CC(C)c1nc(CN(C)C(=O)N[C@H](C(=O)N[C@@H](Cc2ccccc2)C[C@H](O)[C@H](Cc2ccccc2)NC(=O)OCc2cncs2)C(C)C)cs1 [Ritonavir]
- Difference [1, 11]: −0.25
- Cholesterol-free [1, 3]: 1.533
- Complete ([1]; NCI-H292 cells, complete media): 1.287
- Cholesterol-free media + simvastatin (0.04 μM) [2, 9]: 1.133
- Complete Media [2, 26]: 0.8233
- Difference [2, 10]: −0.31

Molecule: Emamectin (Benzoate)
- Difference [1, 24]: 0.02
- Cholesterol-free [1, 17]: 0.001259
- Complete [1, 18]: 0.01673
- Cholesterol-free media + simvastatin (0.04 μM) [2, 22]: 0.006354
- Complete Media [2, 8]: 0.4189
- Difference [2, 5]: 0.41

Molecule: Bismuth subgallate
- Difference [1, 24]: −0.19
- Cholesterol-free [1, 3]: 1.126
- Cholesterol-free media + simvastatin (0.04 μM) [2, 14]: 1.033
- Complete Media [2, 15]: 0.9832
- Difference [2, 16]: −0.05

Molecule: Cc1cc2c(s1)Nc1ccccc1N=C2N1CCN(C)CC1 [Olanzapine]
- Cholesterol-free [1]: 0.9635
- Complete [1]: 0.9217
- Difference [1]: −0.04
- Cholesterol-free media + simvastatin (0.04 μM) [2]: 1.722
- Complete Media [2]: 1.489
- Difference [2]: −0.23

Molecule: COC(=O)c1ccccc1O [Methyl Salicylate]
- Difference [1, 11]: −0.24
- Cholesterol-free [1, 3]: 0.9648
- Complete ([1]; NCI-H292 cells, complete media): 0.722
- Cholesterol-free media + simvastatin (0.04 μM) [2, 19]: 0.8236
- Complete Media [2, 20]: 0.8959
- Difference [2, 21]: 0.07
